The values below come from patent publication US9023817B2, “Use of albiflorin for anti-depression” (priority 2009, dated 2015).

Experiment [1] concerns ICR mice. The experiment can be described thus: Tail suspension test in mice, administration by gavage. The class given is in vivo. Conditions: 3.5 mg/kg/d by gavage for two days; 1 h after administration; over 4 min. The method, then:
In the second day, 1 h after the administration, the tail of mouse (2 cm away from the tip of the tail) was fixed to the connection line of 100 g tension transducer by adhesive plaster, and the mouse was hung upside down, with the head about 15 cm away from the experimental bench, two animals isolated from each other by a cardboard were simultaneously tested for each time. The transducer was connected to the Medlab bio-signals acquisition and processing system, after 2 min of adaption, the result over 4 min was recorded, and the immobility situation was converted into the time(s). The experimental data were expressed as X±SD, and the analysis of variance for the experimental results was carried out by SPSS 11.5 statistical software (purchased from SPSS Inc., USA).

Experiment [2] concerns ICR mice. The experiment can be described thus: Tail suspension test in mice, intraperitoneal injection. The class given is in vivo. Conditions: 7 mg/kg intraperitoneal injection, 1 day; 30 min after administration. The method, then:
Normal mice were randomly divided into three groups (n=20 for each group) according to their weights, i.e. model group, high-dose group (14 mg/kg) and medium-dose group (7 mg/kg) of Albiflorin. Intraperitoneal injection group was subjected to the administration for 1 day. Each group was administered at a dose of 0.2 ml/10 g weight.
The test of intraperitoneal injection group was performed at 30 min after the administration. The tail of mouse 2 cm away from the tip of the tail) was fixed to the connection line of 100 g tension transducer with adhesive plaster, and the mouse was hung upside down, with the head about 15 cm away from the experimental bench, two animals isolated from each other by a cardboard were simultaneously tested for each time. The transducer was connected into the Medlab bio-signals acquisition and processing system, after 2 mins of adaption, the result over 4 mins was recorded, and the immobility situation was converted into the time(s).
The experimental data was expressed as X±SD, and the analysis of variance for the experimental results was carried out by SPSS 11.5 statistical software (purchased from SPSS Inc., USA).

The test system of experiment [3] is rats with chronic stress induced depression model. The experiment can be described thus: Jump stair test, chronic stress induced depression. The class given is in vivo, SD rats. Conditions: 3.5 mg/kg/day gavage for 21 days, 5 minutes. The protocol:
The gavage was carried out along with the model establishment, once a day, for 21 days. […] Referring to the methods in the literature (Xu Jing, Li Xiaoqiu, Establishment and evaluation of the model of chronic stress induced depression, Chinese Journal of Behavioral Medical Science, 2003, 12(1): 14 16), the model was established (i.e., establishing animal model of anti-depression by means of CUMS): the foot electric shock (voltage: […] (5 minutes), drying at 45° C. (5 minutes), tail nipping (1 min), wet feeding (wet mat), reversed day and night (24 hours), fasting (24 hours), water deprivation (24 hours) were randomly scheduled within 21 days, one kind of stimulations was given for each day, except for the animals of vehicle group, the others were separately caged with free diet, at the room temperature of (24±1)° C., with the relative humidity of (60±10)%. […] A wooden platform (height: 5 cm, diameter: 8 cm) was placed into the box at the left back corner. Animals were placed into the response box to adapt to the environment for 3 minutes, and then the box was immediately electrified with […] alternating current, the normal response of the animal which suffered from electric shock was to jump onto the platform in order to avoid such harmful stimulation. Most animals were likely to jump down to the copper railings again or for several times, and then quickly jump back to the platform after suffering from the electric shock, being trained like this for 5 minutes, the times that the rats suffered from the electric shock were designated as error times. The test was carried out again after 24 hours, rats were placed on the platform and the box was charged, timing and recording the error times for 5 minutes. All parameters to be tested were expressed as Mean±SD (X±s), and tested by means of analysis of variance (ANOVA) in SPSS 12.0 software (purchased from SPSS Inc., USA), p<0.05 means that there was a significant difference.

On to `C[C@]12C[C@@H](O)[C@@H]3C[C@@]1(O[C@@H]1O[C@H](CO)[C@@H](O)[C@H](O)[C@H]1O)[C@@]3(COC(=O)c1ccccc1)C(=O)O2` [Albiflorin], for which the “Immobility Time” value is on record as 83.82 ± 35.099 s in the experiment on ICR mice [1] and 82.350 ± 52.5132 s in the experiment with ICR mice [2]. Further, the “Error times in training period” value in experiment [3] came out at 2.25 ± 1.42. For the same molecule, the “Error times in testing period” value in experiment [3] (after 24 hours) was 2.08 ± 1.31.
